Test results: patent US20080312187A1, “PHOSPHOINOSITIDE MODULATION FOR THE TREATMENT OF ALZHEIMER'S DISEASE” (priority 2005, published 2008)
“Also recorded” adds a separate entry of the source. Read-outs that look alike come from different tables or passages of the source.

How the values were obtained:
β-secretase (sAPPβ) = assay: Secreted APP ectodomain generated by β-secretase (sAPPβ) in conditioned media of HeLa APPsw cells; format: cell-based, human; conditions: HeLa cells stably expressing APPsw
Protocol: (§1) FIG. 3A-F. PIP2 levels modulate Aβ biogenesis via two mechanisms. PIP2 levels modulate the release of soluble APP ectodomain into the medium. HeLa cells stably expressing APPsw were treated with either PLC inhibitors (EDEL, MILT) or PLC activator (M3M). Conditioned cell media were analyzed for secreted APP ectodomains generated by α-(sAPPα) (A) and β-secretase (sAPPβ) (B) cleavage. Aβ42 (D) and total Aβ biogenesis (C) in HEK293 cells transiently transfected with C99, C-terminal stub of APP that serves as a direct γ-secretase substrate, in the presence of PIP2 level modulator, EDEL. Aβ42 (F) and total Aβ biogenesis (E) in HEK293 cells transiently transfected with C99, C-terminal stub of APP that serves as a direct γ-secretase substrate, in the presence of PIP2 level modulator, M3M.
(§2) PIP2 levels modulate Aβ biogenesis via two distinct mechanisms. The metabolites of PIP2, including IP3 and DAG, have been implicated in APP processing pathways (69, 70, 71). Under normal conditions, PIP2 hydrolysis (to generate IP3 and DAG) favors the generation of α-secretase-generated secreted APP ectodomain (sAPPα). […] To more clearly define the role of PIP2 in modulating γ-secretase activity (e.g. Aβ42), we next expressed an APP-C99 construct, an ectopic γ-secretase substrate which resembles β-secretase-generated, membrane-associated APP stub in heterologous cells.

full-length APP (FL-APP) = assay: Steady-state full-length APP by Western blot in treated HeLa APPsw cells; format: cell-based, human; conditions: Western blot analysis
Protocol: Full length APP and total Aβ biogenesis are not affected in treated cells. Modulation of PIP2 levels correlates with Aβ42 biogenesis. HeLa cells stably overexpressing the Swedish variant of human APP were treated with either control (DMSO), PLC inhibitor edelfosine (EDEL) or its active analog miltefosine (MILT). Steady-state PIP2 levels were determined by HPLC.

Aβ42 [1] = assay: Aβ42 biogenesis in HeLa cells overexpressing APPsw; format: cell-based; conditions: HeLa cells stably overexpressing Swedish variant of human APP
Source text: (§3) FIG. 2A-E. Changes in PIP2 levels correlate with Aβ42 biogenesis. PIP2 levels (A) and Aβ42 biogenesis (D) in HeLa cells overexpressing human APPsw treated with either PLC inhibitor edelfosine (EDEL) or its active analog miltefosine (MILT). PIP2 levels (B) and Aβ42 biogenesis (E) in HeLa cells overexpressing human APPsw treated with PLC activator m-3m3FBS (M3M). (C) Modulation of PIP2 levels correlates with Aβ42 biogenesis. HeLa cells stably overexpressing the Swedish variant of human APP were treated with either control (DMSO), PLC inhibitor edelfosine (EDEL) or its active analog miltefosine (MILT). Steady-state PIP2 levels were determined by HPLC.

[2] = system: presenilin/γ-secretase (Aβ42); assay: Aβ42 biogenesis in HEK293 cells transiently transfected with C99 (direct γ-secretase substrate); format: cell-based
Protocol: as §1, §2

PIP2 = assay: Steady-state PIP2 levels determined by HPLC in HeLa cells overexpressing APPsw; format: cell-based; conditions: HeLa cells stably overexpressing Swedish variant of human APP
Source text: as §3

α-secretase (sAPPα) = assay: Secreted APP ectodomain generated by α-secretase (sAPPα) in conditioned media of HeLa APPsw cells; format: cell-based, human; conditions: HeLa cells stably expressing APPsw
Protocol: as §1, §2

Aβ42 [3] = assay: Aβ42 versus Aβ40 production in cell lines treated with ginsenosides; format: cell-based; conditions: cell lines and primary neurons
Source text: (§4) Of note, γ-secretase inhibitors and non-steroidal anti-inflammatory drugs were not found to reverse these CCE defects (FIG. 17A-B). Ginsenosides such as (20S)Rg3 may therefore, unlike other Aβ42-lowering agents, also ameliorate the defect in CCE associated with Aβ. The following data support the role of PLCγ1 as a common upstream target modulating CCE as well as Aβ42 levels.

Aβ42 [4] = assay: Aβ42 in cultured hippocampal primary neurons from Tg2576 mice; format: cell-based, mouse; conditions: for Aβ42 in cultured hippocampal primary neurons: primary neurons from Tg2576 mice
Source text: FIG. 15A-B. (A) Rk1 and (20S)Rg3 decrease Aβ42 in cultured hippocampal primary neurons from Ad-model Tg2576 mice.
as §4

hippocampal slices = assay: Long-term potentiation (fEPSP slope) in hippocampal slices treated with Aβ42
Source text: FIG. 5. […] The field excitatory post synaptic potential slope (FEPSP slope) in hippocampal slices that were untreated or treated with Aβ42 (Aβ) or Aβ42 and 20(S)Rg3 was monitored over time.
PIP2 modulation rescues Aβ oligomer-induced synaptic dysfunction.

Tg2576 mice = assay: Aβ42/Aβ40 ratio in brains of Tg2576 mice; format: in vivo, mouse; conditions: Tg2576 transgenic mice
Aβ42 [5] = assay: Aβ42 ELISA in Hela-APPsw cells transfected with siRNA against PLC isoforms and treated with Rg3; format: cell-based, human
Protocol: FIG. 18A-B. Role of PLC γ1 in Aβ42-lowering activity of ginsenosides. (A) Hela-APPsw cells transfected with specific siRNA against PLCβ3, PLC γ1 and PLC γ2 were treated with either DMSO or 15 μM Rg3 for 6 hr. The down regulation of PLCβ3, PLCγ1 and PLCγ2 was confirmed by Western blot using isoform-specific antibodies. (B) Effects of RNAi-mediated downregulation of PLC isoforms in the presence of Rg3 treatment. Aβ42 levels were measured in the conditioned media by ELISA. Aβ values are shown as percentage of control siRNA and are the mean ±s.d. from three independent experiments (*P<0.001, **P<0.01 using ANOVA followed by Dunnett's test). (77,78)
Hela cells stably expressing Swedish FAD mutant APP (Hela-APPsw cells) were treated with small interfering RNA (siRNA) selective against various PLCβ(β1-4) and PLCγ (γ1, 2) isoforms.

**Q.** How did the sAPPβ secretion (β-secretase (sAPPβ)) turn out when Cc1cc(C)c(S(=O)(=O)Nc2cccc(C(F)(F)F)c2)c(C)c1 [m-3m3FBS] was run?
**A.** dramatic increase

**Q.** And the “effect on steady-state levels of full-length APP (FL-APP)” value (full-length APP (FL-APP))?
**A.** No significant effects

**Q.** And the “increase in Aβ42” value (Aβ42 [1])?
**A.** 37.2%

**Q.** What about the “effect on Aβ42 in C99-transfected cells” value [2] of the same molecule?
**A.** Aβ42-promoting activity

**Q.** And the “decrease in the steady state levels of PIP2” value (PIP2)?
**A.** ~11%

**Q.** What about the sAPPα generation (α-secretase (sAPPα)) of the same molecule?
**A.** decreases in sAPPα

**Q.** How did the sAPPβ secretion (β-secretase (sAPPβ)) turn out when CCCCCCCCCCCCCCCCOP(=O)([O-])OCC[N+](C)(C)C [miltefosine] was run?
**A.** reduction in sAPPβ secretion

**Q.** And the sAPPα generation (α-secretase (sAPPα))?
**A.** increases in sAPPα generation

**Q.** How did the “Aβ37 and Aβ38” value (Aβ42 [3]) turn out when C=C(CCC=C(C)C)[C@H]1CC[C@]2(C)[C@@H]1[C@H](O)C[C@@H]1[C@@]3(C)CC[C@H](O[C@@H]4O[C@H](CO)[C@@H](O)[C@H](O)[C@H]4O[C@@H]4O[C@H](CO)[C@@H](O)[C@H](O)[C@H]4O)C(C)(C)[C@@H]3CC[C@]12C [Rk1] was run?
**A.** concomitant increase

**Q.** What about the “Aβ42 production relative to Aβ40” value (Aβ42 [3]) of the same molecule?
**A.** preferentially lower the production of Aβ42; also recorded: selectively decreases Aβ42 relative to Aβ40

**Q.** And the “Aβ42 in cultured hippocampal primary neurons” value (Aβ42 [4])?
**A.** decrease Aβ42

**Q.** Which results are given for CCCCCCCCCCCCCCCCCCOCC(COP(=O)([O-])OCC[N+](C)(C)C)OC (stereo not shown) [edelfosine, Edelfosine]?
**A.** decrease in the levels of Aβ42 (Aβ42 [1]; vs control (DMSO)): 37.3%; increase in the steady-state levels of PIP2 (PIP2; vs control (DMSO)): ~10%

**Q.** CC(C)=CCC[C@](C)(O)[C@H]1CC[C@]2(C)[C@@H]1[C@H](O)C[C@@H]1[C@@]3(C)CC[C@H](O[C@@H]4O[C@H](CO)[C@@H](O)[C@H](O)[C@H]4O[C@@H]4O[C@H](CO)[C@@H](O)[C@H](O)[C@H]4O)C(C)(C)[C@@H]3CC[C@]12C [(20S)Rg3] was tested. Which “Aβ37 and Aβ38” value (Aβ42 [3]) did it give?
**A.** concomitant increase

**Q.** What about the “Aβ42 production relative to Aβ40” value (Aβ42 [3]) of the same molecule?
**A.** preferentially lower the production of Aβ42; also recorded: also selectively decreases Aβ42 relative to Aβ40

**Q.** What about the “long-term potentiation (fEPSP slope) in the presence of Aβ42” value (“long-term potentiation (fEPSP slope)” below) (hippocampal slices) of the same molecule?
**A.** blocks Abeta oligomer-induced inhibition of long-term potentitation

**Q.** What about the “long-term potentiation (fEPSP slope)” value (hippocampal slices; listed as 20(S)Rg3) of the same molecule?
**A.** increases LTP expression relative to untreated hippocampal slices

**Q.** And the “long-term potentiation (fEPSP slope)” value (hippocampal slices; listed as SMT-3)?
**A.** blocks Aβ42 oligomer-induced synaptic dysfunction

**Q.** What about the “Aβ42/Aβ40 ratio in the brains” value (Tg2576 mice) of the same molecule?
**A.** decreases the ratio of Aβ42 to Aβ40

**Q.** What about the “Aβ42/Aβ40 ratio in the brains” value (Tg2576 mice; listed as Rg3) of the same molecule?
**A.** decreased Aβ42/Aβ40 ratio

**Q.** What about the “Aβ42-lowering effect with PLCβ3 expression inhibited by siRNA” value (Aβ42 [5]; 15 μM Rg3 for 6 hr, PLCβ3 siRNA) of the same molecule?
**A.** nearly abolished

**Q.** And the “Aβ42-lowering effect with PLCγ1 expression inhibited by siRNA” value (Aβ42 [5]; 15 μM Rg3 for 6 hr, PLCγ1 siRNA)?
**A.** nearly abolished

**Q.** And the “reduction of Aβ42 generation when PLCγ1 levels are suppressed (dose-response experiments)” value (Aβ42 [5]; PLCγ1 suppressed)?
**A.** far less effective

**Q.** And the “Aβ42/Aβ40 ratio in cultured neurons” value (Aβ42 [4]; cultured neurons)?
**A.** decreased Aβ42/Aβ40 ratio

**Q.** What about the “Aβ42 in cultured hippocampal primary neurons” value (Aβ42 [4]) of the same molecule?
**A.** decrease Aβ42
